Source: publication PMC10767194 (The Journal of Biological Chemistry, 2023)
Where “and” joins values, the source holds several entries; their conditions need not be identical. Identical values can stand only once. Entries after “also recorded” stand apart in the source; their conditions may differ.

B1: cyclin K cyclin box domains (residues 1–267) (domain or fragment, human, UniProt O75909 1-267, looked up)
chain: MKENKENSSPSVTSANLDHTKPCWYWDKKDLAHTPSQLEGLDPATEARYRREGARFIFDVGTRLGLHYDTLATGIIYFHRFYMFHSFKQFPRYVTGACCLFLAGKVEETPKKCKDIIKTARSLLNDVQFGQFGDDPKEEVMVLERILLQTIKFDLQVEHPYQFLLKYAKQLKGDKNKIQKLVQMAWTFVNDSLCTTLSLQWEPEIIAVAVMYLAGRLCKFEIQEWTSKPMYRRWWEQFVQDVPVDVLEDICHQILDLYSQGKQQMPH
notes: cyclin box domains of human cyclin K, residues 1–267, UniProt O75909; synthetic codon-optimised gene; The final model of 8P81 holds residues 20 to 260 of CycK; also called CycK; not shown: GST, N-terminal, cleaved

Experiments:
Cdk12/CycK [1] = target: T1, Cdk12/CycK (Homo sapiens, UniProt Q9NYV4); test: radioactive in vitro kinase assay, Cdk12/CycK; format: biochemical; settings: 20 min; for inhibitory effect on Cdk12/CycK activity, in words: 0, 0.1, 1, 10, 100 μM compound, 0.2 μM Cdk12, 0.2 mM ATP, His-c-Myc; for IC50: 0.2 μM kinase, 0.2 mM ATP, 50 μM His-c-Myc, sigmoidal fit
T1 construct: GST (TEV site) (N, cleaved yes); made in house; host or cells: Sf9 insect cells, co-expressed with S. cerevisiae CAK1
Description: To a concentration of 0.2 μM kinase and 0.2 mM ATP, a compound concentration ranging from 0.1 nM to 1 mM was applied. Kinase reactions were started by the addition of 100 μM CTD peptide containing three hepta-repeats continuously prephosphorylated at position S7 (pS7-CTD[3]) and terminated after 60 min incubation time. In vitro IC50-values were determined by applying a sigmoidal fit to dose-response measurements (Fig. 1A).
Cdk12 kinase (0.2 μM) in the presence of 0.2 mM ATP were supplemented with respective compounds at concentrations of 0, 0.1, 1, 10, and 100 μM for 5 min. Upon addition of 50 μM His-c-Myc substrate the kinase assay reaction was conducted for 20 min.
Radioactive kinase activity assays were performed in a total volume of 15 μl per sample in kinase assay buffer (50 mM Hepes/pH 7.6, 34 mM KCl, 7 mM MgCl2, 5 mM β-glycerol phosphate, and 2.5 mM dithioerythritol). Preincubation of 0.2 μM or 0.02 μM recombinant protein kinase with indicated concentrations of respective inhibitor and 0.2 to 2 mM ATP containing 0.45 mCi [^32P]-γ-ATP/ml (PerkinElmer) was carried out for 5 min. Kinase reactions were started by addition of substrate protein (10 μM GST-Rb1 for Cdk4/CycD3, 10 μM GST-CTD[52] for Cdk7/CycH/MAT1, 50 μM His-c-Myc for all others) and incubated for 20 min at 30 °C in a shaking incubator at 300 rpm. For pS7-CTD[3] peptide, the substrate concentration was increased to 100 μM and assays were performed for 60 min. Reactions were terminated by the addition of EDTA to a final concentration of 50 mM. Reaction samples were separately spotted onto Amersham Protran nitrocellulose membranes (GE HealthCare) and subsequently washed three times for 5 min in PBS. Samples were transferred to 4 ml liquid scintillation vials and 2 ml liquid scintillator (Ultima Gold) were added. Radioactive counts were determined in a Beckman Liquid Scintillation Counter (Beckman Coulter) for 1 min. […] For analysis of dose response measurements and IC50 value determination, data of inhibitor-supplemented samples were normalized to DMSO solvent controls and their activity plotted against the inhibitor concentration. IC50 values were extracted from triplicate measurements by sigmoidal curve fitting using DataGraph (v. 5.0; https://www.visualdatatools.com/DataGraph/) or were determined by applying the Morrison quadratic equation for tight binding inhibitors using GraphPad Prism 10 (https://www.graphpad.com/) ([40]).

Cdk9/CycT1 = target: T2, Cdk9/CycT1 (Homo sapiens, UniProt P50750); test: SPR single-cycle kinetics, Cdk9/CycT1; settings: 1:1 binding model
T2 construct: Full-length, human, WT Cdk9 (residues 1–372, UniProt P50750); made in house; host or cells: Cdk9: Sf9 insect cells; CycT1: E. coli
Description: The protein kinases were immobilized on a CM5 chip using the amine-coupling method. […] The fully active and T-loop phosphorylated kinase preparations of Cdk12∗/CycK and Cdk13∗/CycK were obtained through coexpression with Cdk-activating kinase 1 (CAK1) from Saccharomyces cerevisiae. […] For comparison, we measured the affinity of NVP-2 for active kinases Cdk12∗/CycK and its proposed target Cdk9/CycT1 by SPR.
SPR experiments were conducted on a Biacore 8K (Cytiva) device. The system was equilibrated in running buffer (20 mM Tris pH 8, 150 mM NaCl, 1 mM tris(2-carboxyethyl)phosphine, 0.1 mM MgCl2, 0.05% Tween20, and 2% DMSO) at 25 °C. Flow cell 1 and 2 surfaces of a CM5 sensor chip (Cytiva) were conditioned with 50 mM NaOH at a flow rate of 30 μl/min for 15 s and subsequently activated with a 1:1 mix of 0.1 M N-hydroxysuccinimide (NHS) and 0.1 M 3-(N,N-dimethylamino) propyl-N-ethyl-carbodiimide (EDC) at a flow rate of 10 μl/min for 7 min. The flow system was washed with 1 M enthanolamine (pH 8). WT and mutant kinases Cdk12/CycK, Cdk13/CycK and Cdk9/CycT1 were diluted in Mes (pH 6.5) to a final concentration of 2 μM. Immobilization of kinases was performed in running buffer without DMSO using the amine coupling method on flow cell 2 surface for 160 s at a flow rate of 10 μl/min. Free binding sites were blocked with 1 M ethanolamine pH 8.0 (10 μl/min) for 7 min. […]

Cdk12/CycK [2] = target: T1, Cdk12/CycK; test: SPR single-cycle kinetics, active Cdk12*/CycK; settings: T-loop phosphorylated active kinase (CAK1 coexpressed), 1:1 binding model
[3] = target: T3, Cdk12 kinase domain (residues 714–1063), T-loop phosphorylated, coexpressed with CAK1 (human, UniProt Q9NYV4 714-1063, phosphothreonine at 893 (pT893)); test: crystal structure; Cdk12/CycK at 12 mg/ml with 5-fold excess of SR-4835; hanging drop vapor diffusion at 15 °C; 0.1 M Mops pH 6.5, 30% PEG mix, 0.1 M NDSB; 2.68 Å; settings: both partners purified
T3 construct: kinase domain of human Cdk12, residues 714–1063, UniProt Q9NYV4; synthetic codon-optimised gene; The final model of 8P81 holds residues 716 to 1032 of Cdk12; also called cyclin-dependent kinase 12; not shown: GST, N-terminal, cleaved
T3 sequence (Q9NYV4 714-1063): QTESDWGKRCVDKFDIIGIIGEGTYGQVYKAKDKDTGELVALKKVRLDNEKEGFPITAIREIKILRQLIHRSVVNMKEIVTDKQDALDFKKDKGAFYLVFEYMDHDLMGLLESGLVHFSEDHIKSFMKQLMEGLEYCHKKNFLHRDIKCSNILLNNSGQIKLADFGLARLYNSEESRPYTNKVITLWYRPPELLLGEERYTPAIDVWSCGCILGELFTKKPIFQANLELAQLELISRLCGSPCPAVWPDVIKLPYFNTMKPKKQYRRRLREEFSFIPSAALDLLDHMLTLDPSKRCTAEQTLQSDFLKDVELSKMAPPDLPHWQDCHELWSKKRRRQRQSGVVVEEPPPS

T1 sequence (Q9NYV4 714-1063, one chain of several): as the sequence (Q9NYV4 714-1063) above
T2 sequence (P50750 whole entry, the tested form may be a part): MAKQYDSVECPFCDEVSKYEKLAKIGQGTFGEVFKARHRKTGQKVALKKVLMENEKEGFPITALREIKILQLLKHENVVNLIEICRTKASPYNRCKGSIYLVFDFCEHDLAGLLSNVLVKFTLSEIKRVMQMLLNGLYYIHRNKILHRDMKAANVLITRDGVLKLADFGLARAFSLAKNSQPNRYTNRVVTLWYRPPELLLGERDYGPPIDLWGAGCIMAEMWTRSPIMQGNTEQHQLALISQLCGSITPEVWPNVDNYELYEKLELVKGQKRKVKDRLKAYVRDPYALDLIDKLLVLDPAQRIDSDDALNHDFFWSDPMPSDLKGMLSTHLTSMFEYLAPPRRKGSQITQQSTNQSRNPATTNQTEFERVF
T2 sequence (O60563 1-272 partner limits assumed): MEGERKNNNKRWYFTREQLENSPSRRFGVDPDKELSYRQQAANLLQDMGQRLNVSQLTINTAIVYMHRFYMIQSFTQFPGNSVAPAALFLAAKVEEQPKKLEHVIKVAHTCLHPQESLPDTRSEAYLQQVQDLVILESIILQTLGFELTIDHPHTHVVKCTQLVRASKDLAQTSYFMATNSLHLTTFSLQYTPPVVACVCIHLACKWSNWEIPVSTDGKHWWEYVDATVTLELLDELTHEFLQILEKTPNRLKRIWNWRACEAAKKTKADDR

Molecule | inhibitory effect on Cdk12/CycK activity, in words (Cdk12/CycK [1]) | IC50 (Cdk12/CycK [1]) [nM] | also measured
COC[C@@H](C)NC1CCC(Nc2cc(-c3cccc(NCC4(C#N)CCOCC4)n3)c(Cl)cn2)CC1 (some centres unmarked) [NVP-2] | highest potency | 40.9 | Kd (Cdk9/CycT1): 0.1 nM; Kd (Cdk12/CycK [2]): 2.9 nM and 2.88 nM
CN(C)C/C=C/C(=O)Nc1ccc(C(=O)Nc2cccc(Nc3ncc(Cl)c(-c4c[nH]c5ccccc45)n3)c2)cc1 [THZ1] | modest effects | 87.2 | –
CN(C)C/C=C/C(=O)Nc1ccc(C(=O)N2CCC[C@@H](Nc3ncc(Cl)c(-c4c[nH]c5ccccc45)n3)C2)cc1 [THZ531] | modest effects | 174 | –
CCN1CCN(Cc2ccc(Nc3ncc(F)c(-c4cc(F)c5nc(C)n(C(C)C)c5c4)n3)nc2)CC1 [abemaciclib] | modest effects; also recorded: only weak efficacy | 1300 | –
CCc1cnn2c(NCc3ccc[n+]([O-])c3)cc(N3CCCC[C@H]3CCO)nc12 [dinaciclib] | highest potency | – | –
CN1CC[C@H](c2c(O)cc(O)c3c(=O)cc(-c4ccccc4Cl)oc23)[C@H](O)C1 [flavopiridol] | modest effects | – | –
CC(=O)c1c(C)c2cnc(Nc3ccc(N4CCNCC4)cn3)nc2n(C2CCCC2)c1=O [palbociclib] | no inhibitory effect | – | –
CN(C)C(=O)c1cc2cnc(Nc3ccc(N4CCNCC4)cn3)nc2n1C1CCCC1 [ribociclib] | no inhibitory effect | – | –
CN1CCN(c2ccc(Nc3ncc4cc5n(c4n3)C3(CCCCC3)CNC5=O)nc2)CC1 [trilaciclib] | modest effects; also recorded: only weak efficacy | 1340 | –
B1 | – | – | binding result [3]: binds
